Consider 1 molecule from paper PMC9495423, “Identification of the Natural Steroid Sapogenin Diosgenin as a Direct Dual-Specific RORα/γ Inverse Agonist” (Biomedicines, 2022).

For one experiment, the target named is T1, RORγ (Homo sapiens, UniProt P51449).
T1 construct: gene RORC; also full-length RORγ transcript variant 1
T1 sequence (P51449 265-507 limits assumed): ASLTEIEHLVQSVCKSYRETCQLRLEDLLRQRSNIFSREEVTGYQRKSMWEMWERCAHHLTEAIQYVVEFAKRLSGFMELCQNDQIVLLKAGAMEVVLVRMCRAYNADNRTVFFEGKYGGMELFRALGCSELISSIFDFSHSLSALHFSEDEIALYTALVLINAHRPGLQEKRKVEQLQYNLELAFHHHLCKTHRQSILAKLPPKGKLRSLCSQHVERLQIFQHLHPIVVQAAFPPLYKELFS
The experiment can be described thus: RORγ-Gal4 luciferase reporter assay in HEK293 cells (inverse agonism); full-length RORγ-RORE assay IC50 […]. Type of experiment: cell-based. A general note: In a reporter assay the amount or activity of a reporter protein is the signal.

Another experiment has as its target T2, RORα (Homo sapiens, UniProt P35398).
T2 construct: gene RORA; RORα-Gal4
T2 sequence (P35398 1-523): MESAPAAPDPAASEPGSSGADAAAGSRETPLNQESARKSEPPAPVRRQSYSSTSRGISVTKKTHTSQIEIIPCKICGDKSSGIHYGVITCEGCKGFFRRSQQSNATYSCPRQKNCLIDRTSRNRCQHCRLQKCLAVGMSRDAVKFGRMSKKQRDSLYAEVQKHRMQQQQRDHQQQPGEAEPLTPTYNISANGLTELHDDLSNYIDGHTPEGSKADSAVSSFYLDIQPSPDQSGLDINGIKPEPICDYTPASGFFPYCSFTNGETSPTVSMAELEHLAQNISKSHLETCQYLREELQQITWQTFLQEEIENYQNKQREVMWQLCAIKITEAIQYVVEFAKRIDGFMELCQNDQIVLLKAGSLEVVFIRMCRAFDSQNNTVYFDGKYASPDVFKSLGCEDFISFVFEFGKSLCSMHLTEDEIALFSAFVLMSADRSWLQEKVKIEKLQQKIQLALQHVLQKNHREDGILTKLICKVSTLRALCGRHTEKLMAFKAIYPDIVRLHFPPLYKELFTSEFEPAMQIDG
The experiment can be described thus: RORα-Gal4 luciferase reporter assay in HEK293 cells (inverse agonism). The class given is cell-based.

As a reminder, the IC50 is the concentration at which inhibition is half-maximal. A low value points to inhibition by little substance. Consider `C[C@@H]1CC[C@@]2(OC1)O[C@H]1C[C@H]3[C@@H]4CC=C5C[C@@H](O)CC[C@]5(C)[C@H]4CC[C@]3(C)[C@H]1[C@@H]2C` [diosgenin], for which the IC50 against RORγ came out at 1.73 µM; against RORα, 2.17 µM.
